Reference: ChEMBL document CHEMBL3988442, “University of Dundee, Small-Polar-MMV Screening Library” (2021)
Several values for one entry are separate records, joined by “and”; a condition that tells them apart may be missing. Equal entries are not always repeated.

Experiments:
[1] = system: Leishmania donovani; assay: Leishmania intramacrophage assay; format: functional, organism-based; settings: Leishmania donovani
[2] = target: ClpP1P2 (Mycobacterium tuberculosis (strain ATCC 25618 / H37Rv), UniProt P9WPC3+P9WPC5); assay: in vitro assay to detect presence of AMC directly proportional to the activity of ClpP1P2. GHDDI collaboration.; format: functional
[3] = target: T1, Histidine--tRNA ligase (Leishmania infantum, UniProt A4I591); assay: Leishmania infantum Histidine tRNA synthetase (LdHisRS); format: functional
T1 sequence (A4I591 whole entry): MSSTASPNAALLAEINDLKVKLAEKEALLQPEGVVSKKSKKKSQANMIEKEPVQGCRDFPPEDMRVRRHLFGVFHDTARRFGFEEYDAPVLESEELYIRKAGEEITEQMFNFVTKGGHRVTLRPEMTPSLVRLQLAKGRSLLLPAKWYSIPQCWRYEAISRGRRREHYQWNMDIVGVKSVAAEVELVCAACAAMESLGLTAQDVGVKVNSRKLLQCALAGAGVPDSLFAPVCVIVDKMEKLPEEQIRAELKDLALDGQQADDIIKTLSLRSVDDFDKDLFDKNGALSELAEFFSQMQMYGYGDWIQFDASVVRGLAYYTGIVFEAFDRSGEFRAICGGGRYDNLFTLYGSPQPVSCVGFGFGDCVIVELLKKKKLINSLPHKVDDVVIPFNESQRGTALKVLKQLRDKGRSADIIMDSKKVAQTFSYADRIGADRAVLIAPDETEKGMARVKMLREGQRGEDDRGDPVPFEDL

[4] = microbe, parasite or virus in culture; settings: Mycobacterium tuberculosis, 96 h, read-out: pIC50 (converted)
[5] = microbe, parasite or virus in culture; settings: Mycobacterium tuberculosis, 72 h, read-out: pIC50 (converted)
[6] = In vitro enzyme assay to detect hydrolysis of chlorophenol red-beta-D-[…] directly proportional to the number of Toxoplasma stably expressing beta-galactosidase; format: functional, organism-based, Toxoplasma gondii; settings: Toxoplasma gondii
[7] = system: Plasmodium falciparum; assay: Calibr Malaria Delayed Death Assay SOP; format: functional, organism-based; settings: for IC50: Plasmodium falciparum
[8] = system: Schistosoma mansoni; assay: High throughput screening of compounds against Schistosoma mansoni motility; format: functional; parameters: dose or concentration left out as unconfirmed
[9] = target: Tryptophan--tRNA ligase (Mycobacterium tuberculosis (strain ATCC 25618 / H37Rv), UniProt P9WFT3); assay: Biochemical assay for Mt-TrpRS; format: functional

SMILES	IC50 [3]	IC50 [4] [µM]	IC50 [5] [µM]	also measured
O=C(NCCCN1CCCC1=O)c1ccc(-n2ccc3ccccc32)s1	–	–	–	IC50 [1]: > 50.1 µM
OCCN1CCC(F)(F)C2(CCN(c3cnccn3)C2)C1 (centres undefined)	–	–	–	IC50 [1]: > 50.1 µM
Cn1ccc2c(-c3cc(N4CCCCC4)ncn3)ccnc21	54.3 µM and 45.7 µM	–	–	IC50 [2]: > 100 µM
COCCN(Cc1cnn(C)c1)c1nc(C)nc2sccc12	–	–	–	IC50 [1]: > 50.1 µM
CCN1CC(C(=O)NCc2ccc3c(c2)nc(C)n3C)CCC1=O (centres undefined)	–	–	–	IC50 [1]: > 50.1 µM
Cc1cc(C)n(CC(=O)N2C[C@@H]3CC[C@H](C2)N(CC2CCC2)C3)c(=O)n1	16.8 µM and 12 µM	–	–	IC50 [2]: > 100 µM
O=C(Cn1c(-c2ccco2)cc2cccnc21)N1CCCC1	21.5 µM and 27.9 µM	–	–	IC50 [2]: > 100 µM
O=C(Nc1nccs1)c1csc(NC2CCCC2)n1	30.3 µM and 43.9 µM	34.5	28.4	IC50 [6]: 4.36 µM
CCn1nc2c(cc1=O)CN(c1ncnc3sccc13)CC2	15.5 µM and 11.5 µM	–	–	IC50 [6]: 15 µM
Clc1cc(CN2CCCN3CCCC3C2)c2ncccc2c1 (centres undefined)	26.6 µM and 21.9 µM	12.2	8.48	pIC50 [7]: 5.897; IC50 [7]: 1300 nM
Cn1nc2c(cc1=O)CN(CCc1nc3ccccc3c(=O)[nH]1)CC2	67.7 µM and 54.2 µM	–	–	Percent Effect [8]: -34.74%
CCCC(O)CNc1cncc(Br)c1 (centres undefined)	> 100 µM	21.7	> 50.1	IC50 [9]: > 195 µM
NC(=O)c1cnc2n1CCN(C(=O)c1ccc(Cn3cccc3)cc1)C2	22.7 µM and 17.3 µM	–	–	IC50 [2]: > 100 µM
Cc1cc(NC(=O)CN2CCc3nn(C)c(=O)cc3C2)on1	71.2 µM and 54.8 µM	–	–	Percent Effect [8]: -32.24%
COc1ccccc1C(=O)NC(c1ccccn1)[C@H]1CC[C@H](CN)CC1 (some centres undefined)	9.74 µM and 9.59 µM	–	–	IC50 [9]: > 195 µM
Cc1nccn1CCCn1cncc1-c1ccc2c(c1)CCC(C)N2C (centres undefined)	6.86 µM and 7.15 µM	–	–	IC50 [2]: > 100 µM
Cn1cc(-c2c(C#N)c(N)nc3c2CCc2[nH]ccc2-3)cc1C#N	28 µM and 21.7 µM	–	–	IC50 [2]: > 100 µM
COc1ccccc1C1(CNCc2cccc(O)c2)CCOCC1	1.13 µM and 1.34 µM (2×) and 1.43 µM	–	–	pIC50 [7]: 6.352; IC50 [7]: 310 nM
Cc1c(CN2CCOCC2)c(O)n(CCO)c(=O)c1C#N	35.3 µM and 35.6 µM	–	–	IC50 [9]: > 195 µM
COCC(O)CNc1cncc(Br)c1 (centres undefined)	> 100 µM	–	–	IC50 [9]: > 195 µM
CNc1cc2c(nn1)CCN(C(=O)c1coc(Br)c1)C2	51.3 µM and 66.4 µM	–	–	IC50 [2]: > 100 µM

SMILES	IC50 [3]	IC50 [4] [µM]	IC50 [5] [µM]	also measured
c1ccc2sc(N3CCCN(c4ncnc5c4CCNC5)CC3)nc2c1	76.9 µM and 73.9 µM	–	–	pIC50 [7]: 5.791; IC50 [7]: 1560 nM
Cc1cccnc1[C@H](C)Nc1nc(-c2cccnc2)nc2c1CNC2	36.4 µM and 22.4 µM	–	–	pIC50 [7]: 5.936; IC50 [7]: 951 nM
CC(C)c1nc(CC(=O)Nc2nc(CN3CCCCCC3)cs2)cs1	39.8 µM and 33.5 µM	21.2	23.2	–
CC(=O)Nc1ccc2nc(CN(C)Cc3snnc3C)ccc2c1	51.3 µM and 57.2 µM	–	–	IC50 [2]: > 100 µM
CCC[C@@H]1CN(C(=O)c2cc3ccccc3cc2O)C[C@H]1N(C)C	38 µM and 45 µM	–	–	IC50 [2]: > 100 µM
O=C(c1cc(-c2ccco2)cs1)N1CCCC1	> 100 µM and 53 µM	33	8	–
CCn1nc2c(cc1=O)CN(c1ncnc3ccsc13)CC2	54.3 µM and 39.8 µM	–	–	IC50 [6]: 11.2 µM
COc1ccc(NC(=O)Cn2nc(C)c(C(C)=O)c2C)cc1	17.2 µM and 14 µM	19	22.1	pIC50 [7]: 6.455; IC50 [7]: 421 nM; IC50 [6]: 3.61 µM
CCCc1nc(N(C)CCN2CCCCCC2)c2cnn(C)c2n1	41.4 µM and 39.5 µM	> 50.1	28.3	–
c1ccc(Oc2ccc(OC34CCCN(CC3)C4)cc2)cc1 (centres undefined)	39.4 µM and 40.6 µM	40.7	23.7	–
NC(=O)C1=NC2=NS(=O)(=O)c3ccccc3N2N1Cc1ccc(Cl)cc1	62.9 µM and 43.4 µM	26.4	45.4	–
CCCc1ccc(OC23CCCN(CC2)C3)c(OC)c1 (centres undefined)	38 µM and 39.5 µM	22.7	23.5	–
COc1ccccc1C1(CNCc2cccc(C#N)c2)CCOCC1	70.8 µM and 65.6 µM	–	–	pIC50 [7]: 5.883; IC50 [7]: 1490 nM
CC(=O)c1c(C)nn(CC(=O)Nc2ccc(Br)cc2)c1C	6.08 µM and 7.13 µM	–	8.6	IC50 [6]: 7.32 µM
Brc1ccc(C2(CNCc3cc[nH]c3)CCOCC2)cc1	39.5 µM and 23.5 µM	–	–	pIC50 [7]: 6.139; IC50 [7]: 542 nM
CCC1CN(CC(=O)NCCN2CCCCCC2)c2ccccc2S1 (centres undefined)	39.1 µM and 39.7 µM	> 50.1	44.8	pIC50 [7]: 5.947; IC50 [7]: 1330 nM
N#CCCSc1sc2c(O)cc(O)nc2c1C#N	18.7 µM and 27.5 µM	–	–	IC50 [9]: > 195 µM
CCN1c2ccc(-c3cncn3CCCn3ccnc3C)cc2CC1C.Cl (centres undefined)	39.6 µM and 37.5 µM	46.6	42.9	IC50 [2]: > 100 µM
Clc1ccc(C2(CNC3=NCCN3)CCCCC2)cc1.I	85 µM and 71.6 µM	–	–	pIC50 [7]: 6.717 and 7.044
Cn1cc(-c2c(C#N)c(N)nc3c2CCc2[nH]ccc2-3)cn1	11.2 µM and 16.9 µM	–	–	IC50 [2]: > 100 µM
Cc1ccccc1N1CCN(c2nc(N(C)C)nc3c2CCNC3)CC1	55.3 µM and 91.3 µM	27	26	–
